Source: BindingDB's records for patent US20240025892 (The General Hospital, 2024)

Molecular target: Serine/threonine-protein kinase SIK2 (Homo sapiens, UniProt Q9H0K1)
Experiment: In Vitro SIK2 Kinase Assay
Protocol: Assays were performed in base reaction buffer (20 mM Hepes (pH 7.5), 10 mM MgCl2, 1 mM EGTA, 0.02% Brij35, 0.02 mg/mL BSA, 0.1 mM Na3VO4, 2 mM DTT, 1% DMSO). Compounds were dissolved in 100% DMSO in a 10 mM stock. Serial dilution was conducted by Integra Viaflo Assist in DMSO. […] The substrate used was pAMARA at a concentration of 0.2 mg/mL. Kinase assays were supplemented with 2 mM Mn2+, and 1 μM ATP was added. Assays were performed for 20 minutes at room temperature, after which time 33P-ATP (10 μCi/μL) was added followed by incubation for another 120 minutes at room temperature. Thereafter, radioactivity incorporated into the […] peptide substrate was detected by filter-binding method. Kinase activity data were expressed as the percent remaining kinase activity in test samples compared to DMSO reactions. IC50 values and curve fits were obtained using Prism (GraphPad Software).

Chain of Serine/threonine-protein kinase SIK2 (Q9H0K1 whole entry): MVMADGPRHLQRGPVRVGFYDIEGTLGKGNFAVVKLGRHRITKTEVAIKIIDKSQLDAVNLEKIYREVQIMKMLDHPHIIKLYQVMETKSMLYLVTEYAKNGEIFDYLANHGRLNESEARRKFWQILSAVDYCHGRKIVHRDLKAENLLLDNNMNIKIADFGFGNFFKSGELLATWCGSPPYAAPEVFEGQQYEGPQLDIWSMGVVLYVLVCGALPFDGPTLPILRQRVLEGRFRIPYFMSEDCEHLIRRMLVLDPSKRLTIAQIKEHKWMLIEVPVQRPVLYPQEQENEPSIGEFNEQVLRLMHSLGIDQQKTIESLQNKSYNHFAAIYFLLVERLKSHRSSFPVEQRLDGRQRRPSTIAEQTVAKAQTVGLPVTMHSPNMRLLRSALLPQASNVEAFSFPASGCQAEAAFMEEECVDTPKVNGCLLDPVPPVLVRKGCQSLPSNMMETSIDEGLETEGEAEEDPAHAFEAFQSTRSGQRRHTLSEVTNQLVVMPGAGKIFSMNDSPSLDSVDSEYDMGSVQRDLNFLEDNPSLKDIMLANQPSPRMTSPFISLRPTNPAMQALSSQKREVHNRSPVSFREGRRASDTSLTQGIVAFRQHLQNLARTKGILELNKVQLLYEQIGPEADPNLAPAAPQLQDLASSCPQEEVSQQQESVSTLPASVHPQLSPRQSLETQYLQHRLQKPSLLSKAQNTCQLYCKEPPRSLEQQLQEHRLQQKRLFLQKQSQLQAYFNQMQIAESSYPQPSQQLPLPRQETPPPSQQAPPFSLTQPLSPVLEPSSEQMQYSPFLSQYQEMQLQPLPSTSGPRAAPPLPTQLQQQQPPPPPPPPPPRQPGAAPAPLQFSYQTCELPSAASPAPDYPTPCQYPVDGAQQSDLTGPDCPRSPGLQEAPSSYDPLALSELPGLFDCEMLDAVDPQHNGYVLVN

Compound: N#Cc1ccc(-n2cnc3cc(C(=O)NCc4cccnc4)ccc32)cc1 [US20240025892, Example 32]
- IC50: 148 nM
